Patent US20130244257A1, “INTEGRATED MICROFLUIDIC RADIOASSAY AND IMAGING PLATFORM FOR SMALL SAMPLE ANALYSIS” (THE REGENTS OF THE UNIVERSITY OF CALIFORNIA, priority 2010, published 2013)

System: BCR-ABL
Assay: effect of the buffer surfactant on BCR-ABL kinase activity in the in vitro kinase radio assay
Format: biochemical
Details: 0.1% in all buffers
Experimental: Off-Chip And On-Chip In Vitro Kinase Radio Assays were performed for comparison. In vitro kinase assays were performed using established protocols for bead-based immunoaffinity capture of a specific kinase followed by kinase reactions in the presence of a kinase-specific peptide substrate and ^32P labeled ATP. The microfluidic on-chip assay was developed using reagents that were compatible and efficient in the context of microfluidic channels and valves. For the microfluidic assay, 0.1% n-dodecyl-beta-D-maltoside (DDM) was added to all buffers to prevent bead clumping (indicated by /DDM in the buffer name). […] For BCR-ABL kinase immunocapture, the off-chip assay used agarose protein NG beads (40-160 μm; Pierce, Rockford, Ill.) and the on-chip assay used smaller and more sturdy Protein G polystyrene beads (6.7 μm; Spherotech Inc., Lake Forest, Calif.). The large average size and fragility of the agarose beads precluded their use on-chip, and the small size of the polystyrene beads made them impractical for the pipeting-based off-chip assay. Both bead types were coated with anti-c-ABL antibody (OP20, EMD Chemicals).

effect on BCR-ABL kinase activity: no detectable effect
SMILES: CCCCCCCCCCCCO[C@@H]1O[C@H](CO)[C@@H](O[C@H]2O[C@H](CO)[C@@H](O)[C@H](O)[C@H]2O)[C@H](O)[C@H]1O [DDM, n-dodecyl-beta-D-maltoside]
